Laboratory results as given in patent publication US20180325115A1, “PLANT GROWTH REGULATOR COMPOSTION HAVING SYNERGISTIC EFFECT” (JIANGSU HUIFENG BIO AGRICULTURE CO., LTD., priority 2015, published 2018).

Legend:
Format in all cases: in vivo
powdery mildew of oat = assay: Disease index and prevention effect on powdery mildew in the oat field test; details: Examples 5.4 mg/kg, thidiazuron 5.0 mg/kg, brassinolide 0.4 mg/kg
From the text: (§1) 1. Comprehensive Test on Growth Regulation, Disease Resistance, and Yield Increase for Oat by Thidiazuron Combined with Brassinolide in Field
(§2) Application time: filling stage of oat, because diseases such as powdery mildew easily take place during the earing period.
(§3) Time of application: 1. Formulation examples of the present invention were sprayed, and the results were an average of three replicates.

sorghum = assay: Comprehensive test on growth regulation for sorghum by thidiazuron combined with brassinolide (plant height, stem diameter, 1000-grain weight, yield); details: mixtures 4.3 mg/kg, thidiazuron 4 mg/kg
Procedure: (§4) 1. Comprehensive Test on Growth Regulation for Sorghum by Thidiazuron Combined with Brassinolide
(§5) The thidiazuron and brassinolide were diluted with acetone to give a series of concentrations, and the stems and leaves of crops were sprayed to determine the effect of each concentration on crop growth in the field, so as to make a comprehensive evaluation with respect to the plant height and diameter, the root length, the disease resistance, the quality of fruits, and the yield.
Plant height control rate=(Plant height in water control group-Plant height in treatment group)/Plant height in water control group*100%
Stem diameter increase rate=(Stem diameter in water control group-Stem diameter in treatment group)/Stem diameter in water control group*100%
Increase rate in 1000-grain weight=(1000-grain weight in water control group−1000-grain weight in treatment group)/1000-grain weight in water control group*100%
Increase rate in yield per mu=(Yield per mu in water control group−Yield per mu in treatment group)/Yield per mu in water control group*100%

oat = assay: Comprehensive field test on growth regulation and yield increase for oat by thidiazuron combined with brassinolide; details: Examples 5.4 mg/kg, thidiazuron 5.0 mg/kg, brassinolide 0.4 mg/kg
From the text: as §1, §2, §3

leaf blight of sorghum = assay: Disease index and prevention effect on leaf blight in the sorghum comprehensive test; details: early tasselling stage, mixtures 4.3 mg/kg, thidiazuron 4 mg/kg, brassinolide 0.3 mg/kg
Procedure: as §4, §5
Prevention effect=(Disease index in water control group-Disease index in treatment group)/Disease index in water control group*100%

[1] = early tasselling stage, vs water control, brassinolide 0.3 mg/kg
[2] = maturity and harvest period, brassinolide 0.3 mg/kg
[3] = maturity and harvest period, vs water control, brassinolide 0.3 mg/kg

SMILES: O=C(Nc1ccccc1)Nc1cnns1 [Thidiazuron, thidiazuron]
- Disease index of powdery mildew (powdery mildew of oat): 13.16
- Prevention effect (powdery mildew) (powdery mildew of oat; vs water control): 13.3%
- Plant height (sorghum; early tasselling stage, 2 sprays on stems and leaves, 8 days apart, brassinolide 0.3 mg/kg (active ingredient)): 120.4 cm
- Stem diameter (sorghum; early tasselling stage, brassinolide 0.3 mg/kg): 2.56 cm
- Control rate (plant height) (sorghum; [1]): 3.4%
- Increase rate (stem diameter) (sorghum; [1]): 2.4%
- Weight of 1000 grains (sorghum; [2]): 22.1
- Yield (sorghum; [2]): 555.8 kg/667M^2
- Increase rate (weight of 1000 grains) (sorghum; [3]): 3.6%
- Increase rate (yield per mu) (sorghum; [3]): 3.5%
- Plant height (oat; 1 spray at filling stage, average of three replicates): 120.1 cm
- Stem diameter (oat): 2.38 mm
- Weight of 1000 grains (oat): 35.73
- Yield (oat): 627.3 667M2
- Control rate (plant height) (oat; vs water control): 4.5%
- Increase rate (stem diameter) (oat; vs water control): 3.2%
- Increase rate (weight of 1000 grains) (oat; vs water control): 4.2%
- Increase rate (yield) (oat; vs water control): 4.3%
- Disease index of leaf blight (leaf blight of sorghum): 10.4
- Prevention effect (leaf blight) (leaf blight of sorghum; vs water control): 24.1%
